# Test results taken from patent publication US20250275540A1, “USE OF PROTOPORPHYRINOGEN OXIDASE” (BEIJING DABEINONG BIOTECHNOLOGY CO., LTD., priority 2022, published 2025).
# Tested on: transgenic soybean plants
# Assay: Detection of the herbicide tolerance of the transgenic soybean plants
# Type: in vivo
# Set-up: key to damage levels rated at grade: grade 0 means that the growth status of plants is essentially consistent with those sprayed with the blank solvent (water); grade 1 means that the average of the damage levels of plants is less than 10%; grade 2 means that the average of the damage levels of plants is greater than 10%; grade 3 means that the average of the damage levels of plants is 100%
# Conditions: for The grade of pesticide damage/plant: 0 / The grade of pesticide damage/plant: 1 / The grade of pesticide damage/plant: 2 / The grade of pesticide damage/plant: 3: 7 DAT
# [1] = genotype Control vector, 50 g ai/ha
# [2] = genotype Control vector, 100 g ai/ha
# [3] = genotype PPO-AP-01, 100 g ai/ha
# [4] = genotype PPO-EC-01, 100 g ai/ha
smiles,measurement,setting,value
"CC(C)N(C)S(=O)(=O)NC(=O)c1cc(-n2c(=O)cc(C(F)(F)F)n(C)c2=O)c(F)cc1Cl [saflufenacil, N′-[2-chloro-4-fluoro-5-(3-methyl-2,6-dioxo-4-(trifluoromethyl)-3,6-dihydro-1 (2H)-pyrimidine)benzoyl]-N-isopropyl-N-methylsulfamide]",The grade of pesticide damage/plant: 0,"genotype CK, 50 g ai/ha",0 plant
same,The grade of pesticide damage/plant: 1,"genotype CK, 50 g ai/ha",0 plant
same,The grade of pesticide damage/plant: 2,"genotype CK, 50 g ai/ha",0 plant
same,The grade of pesticide damage/plant: 3,"genotype CK, 50 g ai/ha",16 plant
same,The grade of pesticide damage/plant: 0,"genotype CK, 100 g ai/ha",0 plant
same,The grade of pesticide damage/plant: 1,"genotype CK, 100 g ai/ha",0 plant
same,The grade of pesticide damage/plant: 2,"genotype CK, 100 g ai/ha",0 plant
same,The grade of pesticide damage/plant: 3,"genotype CK, 100 g ai/ha",16 plant
same,The grade of pesticide damage/plant: 0,[1],0 plant
same,The grade of pesticide damage/plant: 1,[1],0 plant
same,The grade of pesticide damage/plant: 2,[1],0 plant
same,The grade of pesticide damage/plant: 3,[1],16 plant
same,The grade of pesticide damage/plant: 0,[2],0 plant
same,The grade of pesticide damage/plant: 1,[2],0 plant
same,The grade of pesticide damage/plant: 2,[2],0 plant
same,The grade of pesticide damage/plant: 3,[2],16 plant
same,The grade of pesticide damage/plant: 0,"genotype PPO-AP-01, 50 g ai/ha",0 plant
same,The grade of pesticide damage/plant: 1,"genotype PPO-AP-01, 50 g ai/ha",0 plant
same,The grade of pesticide damage/plant: 2,"genotype PPO-AP-01, 50 g ai/ha",8 plant
same,The grade of pesticide damage/plant: 3,"genotype PPO-AP-01, 50 g ai/ha",8 plant
same,The grade of pesticide damage/plant: 0,[3],0 plant
same,The grade of pesticide damage/plant: 1,[3],0 plant
same,The grade of pesticide damage/plant: 2,[3],0 plant
same,The grade of pesticide damage/plant: 3,[3],16 plant
same,tolerance to the herbicide (in words),"genotype PPO-AP-01, at different concentrations",basically no tolerance
same,The grade of pesticide damage/plant: 0,"genotype PPO-EC-01, 50 g ai/ha",9 plant
same,The grade of pesticide damage/plant: 1,"genotype PPO-EC-01, 50 g ai/ha",7 plant
same,The grade of pesticide damage/plant: 2,"genotype PPO-EC-01, 50 g ai/ha",0 plant
same,The grade of pesticide damage/plant: 3,"genotype PPO-EC-01, 50 g ai/ha",0 plant
same,The grade of pesticide damage/plant: 0,[4],8 plant
same,The grade of pesticide damage/plant: 1,[4],3 plant
same,The grade of pesticide damage/plant: 2,[4],5 plant
same,The grade of pesticide damage/plant: 3,[4],0 plant
same,share of the plants that exhibited moderate- or poor-resistant tolerance,"genotype PPO-EC-01, four-fold field concentration",about 32%
same,share of the plants rated at grade 1,"genotype PPO-EC-01, two-fold field concentration",about 44%
same,The grade of pesticide damage/plant: 0,"genotype PPOA-01, 50 g ai/ha",16 plant
same,The grade of pesticide damage/plant: 1,"genotype PPOA-01, 50 g ai/ha",0 plant
same,The grade of pesticide damage/plant: 2,"genotype PPOA-01, 50 g ai/ha",0 plant
same,The grade of pesticide damage/plant: 3,"genotype PPOA-01, 50 g ai/ha",0 plant
same,The grade of pesticide damage/plant: 0,"genotype PPOA-01, 100 g ai/ha",16 plant
same,The grade of pesticide damage/plant: 1,"genotype PPOA-01, 100 g ai/ha",0 plant
same,The grade of pesticide damage/plant: 2,"genotype PPOA-01, 100 g ai/ha",0 plant
same,The grade of pesticide damage/plant: 3,"genotype PPOA-01, 100 g ai/ha",0 plant
same,The grade of pesticide damage/plant: 0,"genotype PPOB-01, 50 g ai/ha",16 plant
same,The grade of pesticide damage/plant: 1,"genotype PPOB-01, 50 g ai/ha",0 plant
same,The grade of pesticide damage/plant: 2,"genotype PPOB-01, 50 g ai/ha",0 plant
same,The grade of pesticide damage/plant: 3,"genotype PPOB-01, 50 g ai/ha",0 plant
same,The grade of pesticide damage/plant: 0,"genotype PPOB-01, 100 g ai/ha",16 plant
same,The grade of pesticide damage/plant: 1,"genotype PPOB-01, 100 g ai/ha",0 plant
same,The grade of pesticide damage/plant: 2,"genotype PPOB-01, 100 g ai/ha",0 plant
same,The grade of pesticide damage/plant: 3,"genotype PPOB-01, 100 g ai/ha",0 plant
same,The grade of pesticide damage/plant: 0,"genotype PPOC-01, 50 g ai/ha",16 plant
same,The grade of pesticide damage/plant: 1,"genotype PPOC-01, 50 g ai/ha",0 plant
same,The grade of pesticide damage/plant: 2,"genotype PPOC-01, 50 g ai/ha",0 plant
same,The grade of pesticide damage/plant: 3,"genotype PPOC-01, 50 g ai/ha",0 plant
same,The grade of pesticide damage/plant: 0,"genotype PPOC-01, 100 g ai/ha",16 plant
same,The grade of pesticide damage/plant: 1,"genotype PPOC-01, 100 g ai/ha",0 plant
same,The grade of pesticide damage/plant: 2,"genotype PPOC-01, 100 g ai/ha",0 plant
same,The grade of pesticide damage/plant: 3,"genotype PPOC-01, 100 g ai/ha",0 plant
same,The grade of pesticide damage/plant: 0,"genotype PPOD-01, 50 g ai/ha",16 plant
same,The grade of pesticide damage/plant: 1,"genotype PPOD-01, 50 g ai/ha",0 plant
same,The grade of pesticide damage/plant: 2,"genotype PPOD-01, 50 g ai/ha",0 plant
same,The grade of pesticide damage/plant: 3,"genotype PPOD-01, 50 g ai/ha",0 plant
same,The grade of pesticide damage/plant: 0,"genotype PPOD-01, 100 g ai/ha",16 plant
same,The grade of pesticide damage/plant: 1,"genotype PPOD-01, 100 g ai/ha",0 plant
same,The grade of pesticide damage/plant: 2,"genotype PPOD-01, 100 g ai/ha",0 plant
same,The grade of pesticide damage/plant: 3,"genotype PPOD-01, 100 g ai/ha",0 plant
same,The grade of pesticide damage/plant: 0,"genotype PPOE-01, 50 g ai/ha",16 plant
same,The grade of pesticide damage/plant: 1,"genotype PPOE-01, 50 g ai/ha",0 plant
same,The grade of pesticide damage/plant: 2,"genotype PPOE-01, 50 g ai/ha",0 plant
same,The grade of pesticide damage/plant: 3,"genotype PPOE-01, 50 g ai/ha",0 plant
same,The grade of pesticide damage/plant: 0,"genotype PPOE-01, 100 g ai/ha",15 plant
same,The grade of pesticide damage/plant: 1,"genotype PPOE-01, 100 g ai/ha",1 plant
same,The grade of pesticide damage/plant: 2,"genotype PPOE-01, 100 g ai/ha",0 plant
same,The grade of pesticide damage/plant: 3,"genotype PPOE-01, 100 g ai/ha",0 plant
same,The grade of pesticide damage/plant: 0,"genotype PPOF-01, 50 g ai/ha",16 plant
same,The grade of pesticide damage/plant: 1,"genotype PPOF-01, 50 g ai/ha",0 plant
same,The grade of pesticide damage/plant: 2,"genotype PPOF-01, 50 g ai/ha",0 plant
same,The grade of pesticide damage/plant: 3,"genotype PPOF-01, 50 g ai/ha",0 plant
same,The grade of pesticide damage/plant: 0,"genotype PPOF-01, 100 g ai/ha",16 plant
same,The grade of pesticide damage/plant: 1,"genotype PPOF-01, 100 g ai/ha",0 plant
same,The grade of pesticide damage/plant: 2,"genotype PPOF-01, 100 g ai/ha",0 plant
same,The grade of pesticide damage/plant: 3,"genotype PPOF-01, 100 g ai/ha",0 plant
same,tolerance to the herbicide (in words),"genotypes PPOA-01 to PPOF-01, four-fold field concentration",high-resistant tolerance
same,damage levels rated at grade,"genotypes PPOA-01 to PPOF-01, two-fold field concentration",0
same,tolerance to the herbicide (in words),"genotypes PPOA-01 to PPOF-01 and PPO-EC-01, compared with the control vector and CK",different extents of tolerance
